Assay results published in patent US20130023504A1, “Modulation of Prostaglandin/Cyclooxygenase Metabolic Pathways” (HUNTER-FLEMING LIMITED, priority 2006, published 2013).
Values joined by “and” are separate entries in the source; they are usually repeats but may differ in a detail not shown here. Equal values may be shown once.

Tests used:
[1] = test system: control rats without colitis; test: Colonic prostaglandin levels and COX-2/PG synthase mRNA in control rats without colitis; assay type: in vivo, rat
Experimental: After a 7-day adaptation period, animals were divided into two control groups (sham-control and 7β-hydroxy-EPIA-treated control group and two colitis groups (colitis and 7β-hydroxy-EPIA-treated colitis). 7β-Hydroxy-EPIA (0.01, 0.1, and 1 mg/kg body weight dissolved in DMSO) or DMSO alone (vehicle) was administered i.p. once a day for 7 days, from day 0 to day 7. Colitis was induced from day 7 to 14 by addition of DSS (molecular weight 36-50 kDa; MP Biomedicals, France) to drinking water. The two control groups received tap water only.
Commercially available EIA kits were used for the determination of PGE2 levels (Oxford Biomedical Research, UK) and 15d-PGJ2 levels (Assay designs, Euromedex, France) in colonic supernatants obtained from fresh homogenates. Measurement of PGD2 levels was obtained using the prostaglandin D2-MOX EIA kit (Cayman Chemical, Euromedex). In this case, and prior to assay, the fresh samples were immediately treated with the MOX-HCl reagent which converted PGD2 into PGD2-MOX, thus preventing any further chemical degradation.
Total RNA from fresh colonic samples (300 mg) was extracted using Trizol Reagent (Invitrogen, Cergy-Pontoise, France). Poly(A) RNA was purified from total RNA with MicroPoly(A)Purist kit (Ambion, Huntingdon, UK). cDNA was synthesized using the Superscript first strand synthesis system kit (Invitrogen). Real-time PCR was performed using mixtures (25 μL) containing 2.5× RealMaster Mix/20×SYBR solution (11.25 μL) (Eppendorf, Le Pecq, France) and 300 nM forward and reverse primers. Reactions were run on a RealPlex ep gradient S mastercycler (Eppendorf). The cycling conditions were at 95° C. for 10 minutes and 40 cycles at 95° C., 55° C. and 68° C. for 15 seconds, 30 seconds and 30 seconds, respectively. Each assay included a standard curve of four serial dilution points of control cDNA. Oligonucleotide primers were synthesized by Genecust/Distribio (Evry, France). The specificity of the amplified product was monitored by examination of the product melting curve and confirmed by analysis on agarose gel electrophoresis. The levels of mRNA were expressed relative to that of the DMSO control, after normalization to HPRT1.

[2] = test system: rat sensory neurones; test: Cisplatin-induced neuronal cell death, number of cell bodies per field in dorsal root ganglia sensory neurones (anti MAP-2); assay type: cell-based; details: for % Control without cisplatin (cell bodies) / number of cell bodies per field, Average: cisplatin 3 μg/ml
Experimental: Primary cultures of dissociated dorsal root ganglia sensory neurones were incubated with 3 μg/ml cisplatin, with and without 7β-OH EPIA for 48 hours and 72 hours and the following parameters were evaluated:
neurone cell bodies stained with an anti MAP 2 antibody (microtubule associated protein 2)
Rat sensory neurones were prepared according to the method described by Hall et al 1997 [Hall et al. (J. Neurosci. 1997 Apr. 15; 17(8); 2775-84]. Briefly, a female rat (15 days gestation) was killed by cervical dislocation (Rats Wistar; Janvier, Le Genest-St-lsle, France) and the foetuses removed from the uterus. Their spinal cords with the dorsal root ganglia (DRG) were removed and placed in ice-cold medium of Leibovitz (L15, Fisher 11415-049) containing Penicillin 50 UI/ml-Streptomycin 50 μg/ml (PS, 1%) and bovine serum albuminutes (BSA 1%, Sigma A6003). The DRG were recovered and dissociated by trypsinisation for 20 minutes at 37° C. (trypsin EDTA 10×, 10%, Fisher 15400054) diluted in PBS without calcium and magnesium (Fisher 2007-03). The reaction was stopped by addition of Dulbecco modified Eagle medium (DMEM, Fisher 21969-035) containing DNase I grade II (0.1 mg/ml Roche diagnostic 104159) and foetal bovine serum (FBS 10%, Fisher 10270-098). The cell suspension was triturated with a 10 ml pipette and centrifuged at 350×g for 10 minutes at room temperature. The pellet of dissociated cells was then resuspended in defined culture medium.
Viable cells were counted in a Neubauer cytometer using the trypan blue exclusion test (Sigma) and seeded at a density of 30 000 cells/well in 96 well-plates (Nunc). Wells were pre-coated with poly-L-lysine (10 μg/ml, Sigma P2636) in ultra pure sterile water (Merck Eurolab 60759.01).
Cells were allowed to adhere for 2 h and maintained in a humidified incubator at 37° C. in 5% CO2/95% air atmosphere.
After 5 days of culture, the culture medium was changed into a defined culture medium following the different conditions described below:
Test compound 7β-OH EPIA (1 nM, 10 nM and 100 nM)+cisplatin (3 μg/ml)
Reference compound NGF (10 ng/ml)+cisplatin (3 μg/ml)
Six wells per condition were carried out to assess neuronal survival. After 48 hours and 72 hours of incubation, the neuronal cells were fixed for 5 minutes in an ethanol/acetic acid solution (95%/5%) at −20° C. and rinsed 3 times in PBS.
Cell bodies of sensory neurones were labelled by monoclonal anti MAP-2 antibody (Sigma M4403) and the neurite of sensory neurones were labelled by monoclonal β-Tubulin antibody (Sigma T8660). These antibodies were diluted at 1:400 in incubation solution (PBS with 5% of FCS and 0.1% of saponin, Sigma S-7900). These antibodies specifically label neurone cell bodies and neuritis, respectively.
After 2 hours of incubation, the cells were washed in PBS and incubated with Alexa Fluor 488 goat anti mouse IgG (Molecular Probes A11001) diluted at 1:300 in incubation solution to reveal the MAP-2 and the β-Tubulin antibodies. Cell nuclei were stained with a fluorescent marker (Hoechst staining solution, SIGMA H6024, 1 μg/ml in incubation solution during 1 hour).
For each condition, 2 pictures per well (12 pictures per condition) were taken using In Cell Analyzer 1000 (Amersham Biosciences) controlled by the computer software In Cell Analyzer 1000 3.2. For the MAP-2 labelling, the magnification was ×10, for the β-Tubulin labelling, the magnification was ×20. For each labelling, all the images were taken in the same conditions.
Analysis of the number of cell bodies labelled with anti-MAP-2 antibodies, and total length of neurites labelled with anti β-Tubulin antibodies, were carried out using In Cell Analyzer 1000 3.2.Workstation software. The results were expressed in percentage compared to the vehicle. The comparisons of each group were carried out using the unpaired T test.

With `CC12CCC3C(C1CCC2=O)[C@@H](O)C[C@H]1C[C@@H](O)CCC31C` (stereo partly drawn) [Compound 7β-OH-EPIA, 7β-hydroxy-EPIAndrosterone] the “increase of colonic 15d-PGJ2 above basal levels” value ([1]; 0.1 mg/kg day 0 to day 7, day 2) was 51 fold, the “increase in COX-2 mRNA levels” value ([1]; 0.1 mg/kg, at 15 h) was 1.5 fold and the “mPGES-1 mRNA expression” value ([1]; 0.1 mg/kg, between 6 h and 15 h) was “increased transiently”. The “H-PGDS mRNA synthesis” value ([1]; 0.1 mg/kg, course of the experiment) was “remained unchanged”, the “PGE2 and PGD2 colonic tissue levels” value ([1]; control rats without colitis) was “did not alter” and the “reduction of cisplatin-induced cell death” value (“reduction” below) ([2]; 1 nM, 48 hours) was 53.1%. The “reduction” value ([2]; 1 nM, 72 hours) was 93%, the “% Control without cisplatin (cell bodies)” value (from here on “% Control without cisplatin”) ([2]; 1 nM, 48 hours) was 85% and the “number of cell bodies per field, Average” value ([2]; 1 nM, 48 hours) was 51 and 51.42. For the same compound, the “% Control without cisplatin” value ([2]; 1 nM, 72 hours) was 98%, the “number of cell bodies per field, Average” value ([2]; 1 nM, 72 hours) was 52 and 52.42 and the “reduction” value ([2]; 10 nM, 48 hours) was 18.7%. The “reduction” value ([2]; 10 nM, 72 hours) was 104%, the “% Control without cisplatin” value ([2]; 10 nM, 48 hours) was 75% and the “number of cell bodies per field, Average” value ([2]; 10 nM, 48 hours) was 45 and 45.50. For the same compound, the “% Control without cisplatin” value ([2]; 10 nM, 72 hours) was 1.2%, the “number of cell bodies per field, Average” value ([2]; 10 nM, 72 hours) was 55 and 54.58 and the “reduction” value ([2]; 100 nM, 48 hours) was 43.8%. The “reduction” value ([2]; 100 nM, 72 hours) was 93%, the “% Control without cisplatin” value ([2]; 100 nM, 48 hours) was 82% and the “number of cell bodies per field, Average” value ([2]; 100 nM, 48 hours) was 50 and 49.58. The “% Control without cisplatin” value ([2]; 100 nM, 72 hours) was 97% and the “number of cell bodies per field, Average” value ([2]; 100 nM, 72 hours) was 52 and 52.25.
